Test results taken from patent US11214572B2, “7-site substituted pyrrole triazine compounds or pharmaceutically acceptable salts thereof, and preparation method thereof and uses thereof” (SHANGHAI INSTITUTE OF MATERIA MEDICA, CHINESE ACADEMY OF …, priority 2017, dated 2022).
Several values for one entry are separate records, joined by “and”; a condition that tells them apart may be missing. Identical values can stand only once. Like-named read-outs stand apart in the source and are kept apart here.

Assays:
PI3Kγ = PI3Kγ (Homo sapiens, UniProt P48736); test: PI3K kinase activity, γ isoform; type: biochemical; conditions: for inhibition at 0.1 µM: compound 100 nM, read-out: IH (%) @ 100 nM, γ;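 as to all read-outs here: kinase reaction run in 384-well plates, with inhibition normalised between the 0% and 100% reference reactions. IC50 derived from a ten-point, fourfold serial dilution series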
Protocol: (§6) Concentration setting for preliminary screening: the compounds to be tested were dissolved in DMSO (dimethyl sulfoxide) to 100 μM or 10 μM as storage solutions; for each one, 2 μL was taken to be added to 48 μL of 1× Reaction Buffer to obtain a 4 μM or 400 nM compound solution containing 4% DMSO. After well mixing, the mixture was diluted with 4% DMSO in 1× Reaction Buffer to obtain a 4 μM or 400 nM compound solution. 5 μL of each diluted solution was taken to be added to a 384-well plate, so that the final concentration of the compound in the final 20 μL of the kinase reaction system was 1 μM and 100 nM or 100 nM and 20 nM, respectively, and containing 1% DMSO.
(§7) The compounds to be tested were dissolved in DMSO to 1 mM or 10 mM as working solutions, 1 μL of each working solution was taken to be added to 24 μl of 1× Kinase Buffer A to obtain a 40 μM or 400 μM compound solution containing 4% DMSO. The compound solution was diluted by 4× gradient in sequence, 10 dilution concentrations.
(§8) Calculation of the Inhibition Rate • The inhibitory rate was calculated by the following formula: Inhibitory rate=(ERsample−ER0%)/(ER100%−ER0%)×100%

PI3Kβ = PI3Kβ (Homo sapiens, UniProt P42338); test: PI3K kinase activity, β isoform; conditions: for inhibition at 0.1 µM: read-out: IH (%) @ 100 nM, β;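 as to all read-outs here: kinase reaction containing 1% DMSO, read as an emission ratio, with inhibition scaled between the 0% and 100% control ratios. IC50 values come from a ten-point fourfold dilution series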
Protocol: as §6, §7, §8

PI3Kα = PI3Kα (Homo sapiens, UniProt P42336); test: PI3K kinase activity, α isoform; conditions: for inhibition at 0.02 µM: read-out: IH (%) @ 20 nM, α
Protocol: as §6, §7, §8

PI3Kδ = PI3Kδ (Homo sapiens, UniProt O00329); test: PI3K kinase activity, δ isoform; conditions: for inhibition at 0.02 µM: read-out: IH (%) @ 20 nM, δ
Protocol: as §6, §7, §8

[1] = Preliminary pharmacokinetic test, intravenous injection; type: in vivo, SD rats; conditions: 5 mg/kg, rats, intravenous injection 5 mg/kg, tested as monomesylate; for Vd: read-out: Vss
Protocol: (§1) 1. 14 healthy SD rats, male, weigh 200-220 g, were taken to be randomly divided into 4 groups, 3-4 in each group, and were administered the tested compound P-17 and compound CYH33 (compared with compound P-17, missing a methyl group on 7-position) via intragastric administration (10 mg/kg) and intravenous injection (5 mg/kg) respectively, the specific arrangements are shown in the following table 3:
(§2) The rats were fasted for 12 h before experiment, water was taken freely. The rats were fed 2 h after dosing.
Dosing via intravenous: 5 min, 0.25 h, 0.5 h, 1.0 h, 2.0 h, 4.0 h, 6.0 h, 8.0 h, and 24 h after dosing.
(§3) At the above setting time points, 0.3 ml of venous blood was taken from the retroorbital venous plexus of the rat, and placed in a heparinized test tube, centrifuged at 11,000 rpm for 5 min, then the plasma was separated, and frozen in a refrigerator at −20° C.
(§4) LC/MS/MS method was used to determine the concentration of the compounds in the plasma of rats.
(§5) The non-compartment model of Phoenix 1.3 software (Pharsight Corporation, USA) was used to calculate the pharmacokinetic parameters after dosing.

[2] = Preliminary pharmacokinetic test, intragastric administration; type: in vivo, SD rats; conditions: rats; for half-life: read-out: T½ (converted)
Protocol: as §1, §2
Dosing via intragastric administration: 0.25 h, 0.5 h, 1.0 h, 2.0 h, 3.0 h, 4.0 h, 6.0 h, 8.0 h, and 24 h after dosing.
as §3, §4, §5

[3] = male, SD, rat, plasma, iv, Mean
[4] = male, SD, rat, plasma, iv, individual animal

Sequence of PI3Kδ (O00329 whole entry, canonical isoform): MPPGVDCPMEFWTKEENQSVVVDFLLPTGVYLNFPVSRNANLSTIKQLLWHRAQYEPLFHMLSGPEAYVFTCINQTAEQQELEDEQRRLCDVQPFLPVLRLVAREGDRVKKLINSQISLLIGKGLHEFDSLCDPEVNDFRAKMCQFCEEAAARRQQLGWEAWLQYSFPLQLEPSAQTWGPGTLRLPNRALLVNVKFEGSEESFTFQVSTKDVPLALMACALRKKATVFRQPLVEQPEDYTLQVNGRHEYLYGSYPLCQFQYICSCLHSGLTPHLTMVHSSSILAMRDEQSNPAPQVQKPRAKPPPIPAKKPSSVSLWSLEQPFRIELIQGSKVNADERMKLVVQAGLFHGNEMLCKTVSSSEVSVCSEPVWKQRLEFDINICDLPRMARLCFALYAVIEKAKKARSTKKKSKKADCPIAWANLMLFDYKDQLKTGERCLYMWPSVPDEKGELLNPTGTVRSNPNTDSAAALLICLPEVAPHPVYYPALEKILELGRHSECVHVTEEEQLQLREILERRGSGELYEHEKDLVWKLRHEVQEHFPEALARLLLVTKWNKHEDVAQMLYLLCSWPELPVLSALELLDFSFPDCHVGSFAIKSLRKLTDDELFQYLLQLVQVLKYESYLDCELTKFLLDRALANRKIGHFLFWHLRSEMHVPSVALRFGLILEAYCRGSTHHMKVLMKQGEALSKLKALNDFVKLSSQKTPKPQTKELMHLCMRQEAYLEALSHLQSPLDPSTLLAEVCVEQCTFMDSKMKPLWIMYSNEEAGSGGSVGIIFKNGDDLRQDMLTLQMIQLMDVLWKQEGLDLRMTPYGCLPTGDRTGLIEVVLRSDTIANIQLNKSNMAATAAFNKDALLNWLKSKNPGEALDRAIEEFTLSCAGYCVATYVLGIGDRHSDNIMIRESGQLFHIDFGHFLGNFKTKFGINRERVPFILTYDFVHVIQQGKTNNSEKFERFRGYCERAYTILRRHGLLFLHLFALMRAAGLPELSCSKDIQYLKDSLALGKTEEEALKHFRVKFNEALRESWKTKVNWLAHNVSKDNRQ
Sequence of PI3Kδ (P27986 whole entry partner, canonical isoform): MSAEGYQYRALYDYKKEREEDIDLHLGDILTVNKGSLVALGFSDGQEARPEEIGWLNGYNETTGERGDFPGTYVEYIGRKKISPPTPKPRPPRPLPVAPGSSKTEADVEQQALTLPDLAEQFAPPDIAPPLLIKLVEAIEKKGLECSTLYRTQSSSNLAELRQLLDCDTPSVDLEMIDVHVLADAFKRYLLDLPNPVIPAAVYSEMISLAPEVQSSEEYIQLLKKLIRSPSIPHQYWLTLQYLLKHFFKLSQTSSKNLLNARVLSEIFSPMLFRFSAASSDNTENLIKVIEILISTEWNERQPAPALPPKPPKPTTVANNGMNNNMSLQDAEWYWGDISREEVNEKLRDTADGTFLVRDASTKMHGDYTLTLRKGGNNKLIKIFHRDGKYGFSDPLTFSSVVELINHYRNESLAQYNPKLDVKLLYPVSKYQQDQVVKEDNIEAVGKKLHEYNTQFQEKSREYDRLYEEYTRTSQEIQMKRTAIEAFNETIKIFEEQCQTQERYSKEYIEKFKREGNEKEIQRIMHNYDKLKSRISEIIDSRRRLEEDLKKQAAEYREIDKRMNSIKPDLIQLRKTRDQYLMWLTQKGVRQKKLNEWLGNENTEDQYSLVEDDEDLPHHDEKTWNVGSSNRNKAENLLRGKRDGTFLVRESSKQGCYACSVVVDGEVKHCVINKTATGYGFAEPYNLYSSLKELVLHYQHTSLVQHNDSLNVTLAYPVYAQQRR
Sequence of PI3Kα (P42336 whole entry, canonical isoform): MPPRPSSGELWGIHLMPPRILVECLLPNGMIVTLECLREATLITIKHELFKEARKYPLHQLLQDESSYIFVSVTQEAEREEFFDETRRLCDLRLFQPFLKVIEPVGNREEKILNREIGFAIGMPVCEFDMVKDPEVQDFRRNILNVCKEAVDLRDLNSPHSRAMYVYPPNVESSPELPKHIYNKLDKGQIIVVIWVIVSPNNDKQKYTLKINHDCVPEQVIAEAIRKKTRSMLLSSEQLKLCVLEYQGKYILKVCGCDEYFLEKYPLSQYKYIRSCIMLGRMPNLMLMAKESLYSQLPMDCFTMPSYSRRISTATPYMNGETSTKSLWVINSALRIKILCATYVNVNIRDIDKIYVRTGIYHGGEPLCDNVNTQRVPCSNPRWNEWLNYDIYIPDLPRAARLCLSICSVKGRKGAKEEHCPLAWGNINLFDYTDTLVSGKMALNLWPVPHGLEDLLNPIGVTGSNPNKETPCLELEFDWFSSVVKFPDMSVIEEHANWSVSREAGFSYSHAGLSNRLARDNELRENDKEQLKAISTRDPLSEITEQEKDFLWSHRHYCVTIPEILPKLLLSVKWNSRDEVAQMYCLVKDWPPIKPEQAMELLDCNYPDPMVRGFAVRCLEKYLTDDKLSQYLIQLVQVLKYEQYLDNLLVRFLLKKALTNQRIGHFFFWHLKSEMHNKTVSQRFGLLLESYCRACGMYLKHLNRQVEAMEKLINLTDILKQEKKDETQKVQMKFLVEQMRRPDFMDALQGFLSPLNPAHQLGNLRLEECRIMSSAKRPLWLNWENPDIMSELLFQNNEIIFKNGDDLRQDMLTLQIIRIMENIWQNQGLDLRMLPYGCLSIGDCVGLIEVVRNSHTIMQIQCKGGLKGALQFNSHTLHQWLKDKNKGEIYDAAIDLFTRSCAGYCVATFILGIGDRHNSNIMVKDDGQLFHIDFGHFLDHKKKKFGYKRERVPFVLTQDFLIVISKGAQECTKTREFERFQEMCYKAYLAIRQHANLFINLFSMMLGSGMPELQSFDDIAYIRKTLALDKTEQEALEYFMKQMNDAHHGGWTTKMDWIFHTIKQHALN
Sequence of PI3Kα (P27986 whole entry partner, canonical isoform): as the sequence (P27986 whole entry partner, canonical isoform) above
Sequence of PI3Kγ (P48736 whole entry, canonical isoform): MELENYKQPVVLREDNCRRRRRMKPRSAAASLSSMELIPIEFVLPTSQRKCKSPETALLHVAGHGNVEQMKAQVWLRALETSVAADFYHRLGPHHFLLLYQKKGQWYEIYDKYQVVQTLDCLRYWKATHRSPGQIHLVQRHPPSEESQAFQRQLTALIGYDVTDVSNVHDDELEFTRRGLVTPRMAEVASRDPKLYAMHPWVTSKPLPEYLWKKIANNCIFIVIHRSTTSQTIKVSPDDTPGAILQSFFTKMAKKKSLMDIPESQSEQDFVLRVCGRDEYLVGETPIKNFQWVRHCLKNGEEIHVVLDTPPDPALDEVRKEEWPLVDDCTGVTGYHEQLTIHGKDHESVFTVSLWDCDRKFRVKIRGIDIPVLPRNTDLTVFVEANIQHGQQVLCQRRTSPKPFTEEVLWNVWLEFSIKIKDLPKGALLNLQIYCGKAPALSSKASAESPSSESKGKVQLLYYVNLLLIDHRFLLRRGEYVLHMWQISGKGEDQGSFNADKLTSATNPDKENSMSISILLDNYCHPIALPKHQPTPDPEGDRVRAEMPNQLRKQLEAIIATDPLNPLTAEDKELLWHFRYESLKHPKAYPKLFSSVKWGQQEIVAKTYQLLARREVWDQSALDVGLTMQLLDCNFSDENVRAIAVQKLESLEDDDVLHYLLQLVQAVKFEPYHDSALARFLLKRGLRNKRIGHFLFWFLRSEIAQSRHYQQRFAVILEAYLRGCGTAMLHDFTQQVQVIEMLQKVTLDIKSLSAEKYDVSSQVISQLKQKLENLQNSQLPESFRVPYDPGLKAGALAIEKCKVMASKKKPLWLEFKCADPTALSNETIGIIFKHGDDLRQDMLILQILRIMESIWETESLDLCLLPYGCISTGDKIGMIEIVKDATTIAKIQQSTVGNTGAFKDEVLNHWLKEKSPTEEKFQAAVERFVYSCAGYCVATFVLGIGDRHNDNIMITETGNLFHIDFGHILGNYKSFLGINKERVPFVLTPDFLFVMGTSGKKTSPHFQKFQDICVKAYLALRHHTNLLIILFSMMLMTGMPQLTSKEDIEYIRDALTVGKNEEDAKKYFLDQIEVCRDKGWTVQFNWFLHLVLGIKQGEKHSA
Sequence of PI3Kβ (P42338 whole entry, canonical isoform): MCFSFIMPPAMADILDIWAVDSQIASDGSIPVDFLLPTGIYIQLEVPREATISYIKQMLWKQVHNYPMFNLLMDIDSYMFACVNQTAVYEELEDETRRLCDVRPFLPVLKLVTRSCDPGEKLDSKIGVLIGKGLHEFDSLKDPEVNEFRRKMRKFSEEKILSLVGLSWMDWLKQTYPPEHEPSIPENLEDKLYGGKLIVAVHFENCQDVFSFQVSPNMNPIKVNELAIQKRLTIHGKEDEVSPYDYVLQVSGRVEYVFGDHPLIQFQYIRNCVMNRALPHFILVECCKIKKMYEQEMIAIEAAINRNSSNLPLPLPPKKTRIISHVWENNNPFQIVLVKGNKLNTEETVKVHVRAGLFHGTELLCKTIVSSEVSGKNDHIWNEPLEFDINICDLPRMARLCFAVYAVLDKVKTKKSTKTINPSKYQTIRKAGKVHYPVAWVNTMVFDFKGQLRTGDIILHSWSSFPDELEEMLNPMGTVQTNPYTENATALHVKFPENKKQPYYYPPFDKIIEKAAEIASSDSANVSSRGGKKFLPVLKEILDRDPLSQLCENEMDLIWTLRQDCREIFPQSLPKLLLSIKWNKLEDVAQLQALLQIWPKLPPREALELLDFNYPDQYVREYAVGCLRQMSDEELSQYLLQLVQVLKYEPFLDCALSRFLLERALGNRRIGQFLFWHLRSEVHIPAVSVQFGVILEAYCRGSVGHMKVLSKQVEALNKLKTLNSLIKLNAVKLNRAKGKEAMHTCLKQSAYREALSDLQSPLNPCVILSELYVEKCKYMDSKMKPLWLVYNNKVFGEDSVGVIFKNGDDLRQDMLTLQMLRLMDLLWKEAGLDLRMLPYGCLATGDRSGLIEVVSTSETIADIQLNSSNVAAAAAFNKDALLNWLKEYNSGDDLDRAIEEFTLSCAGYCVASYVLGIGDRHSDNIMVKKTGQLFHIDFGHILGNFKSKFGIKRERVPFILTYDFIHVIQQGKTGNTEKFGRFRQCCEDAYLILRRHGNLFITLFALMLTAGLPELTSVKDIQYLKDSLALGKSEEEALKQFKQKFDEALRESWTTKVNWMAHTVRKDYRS
Sequence of PI3Kβ (P27986 whole entry partner, canonical isoform): as the sequence (P27986 whole entry partner, canonical isoform) above

Work on `CS(=O)(=O)N1CCN(Cc2cc3c(N4CCOCC4)nc(-c4cnc(N)cc4C(F)(F)F)nn3c2Cl)CC1` [Compound P-11] yielded an IC50 (PI3Kγ) of 248 nM, an inhibition at 0.1 µM (PI3Kγ) of 19.4% and an IC50 (PI3Kβ) of 1440 nM. It also gave an inhibition at 0.1 µM (PI3Kβ) of 15.8%, an IC50 (PI3Kα) of 21.3 nM and an inhibition at 0.02 µM (PI3Kα) of 72.8%. For the same molecule, the IC50 (PI3Kδ) was 28.1 nM and the inhibition at 0.02 µM (PI3Kδ) was 50.3%.

With `Cc1c(CN2CCN(C(=O)C(C)(C)O)CC2)cc2c(N3CCOCC3)nc(-c3cnc(N)cc3C(F)(F)F)nn12` [Compound P-13] the inhibition at 0.1 µM (PI3Kγ) was 2.16%, the inhibition at 0.1 µM (PI3Kβ) was 2.34% and the inhibition at 0.02 µM (PI3Kα) was 30.5%. For the same molecule, the inhibition at 0.02 µM (PI3Kδ) was 41.2%.

For `Cc1c(CN2CCN(C(=O)[C@H](C)O)CC2)cc2c(N3CCOCC3)nc(-c3cnc(N)cc3C(F)(F)F)nn12` [Compound P-14], the IC50 (PI3Kγ) was 1950 nM, the inhibition at 0.1 µM (PI3Kγ) was 6.83% and the IC50 (PI3Kβ) was 2650 nM. It also gave an inhibition at 0.1 µM (PI3Kβ) of 3.44%, an IC50 (PI3Kα) of 77.5 nM and an inhibition at 0.02 µM (PI3Kα) of 24.8%. For the same molecule, the IC50 (PI3Kδ) was 85.6 nM and the inhibition at 0.02 µM (PI3Kδ) was 63.3%.

Work on `COC(=O)Nc1cc(C(F)(F)F)c(-c2nc(N3CCOCC3)c3cc(CN4CCN(S(C)(=O)=O)CC4)c(C)n3n2)cn1` [Compound P-17] yielded an IC50 (PI3Kγ) of 290 nM, an inhibition at 0.1 µM (PI3Kγ) of 47% and an AUC(0-inf) [1, 3] of 3240 ng·h/mL. The AUC(0-t) [1, 3] was 2990 ng·h/mL, the clearance [1, 3] was 26.8 mL/min/kg and the half-life [1, 3] was 2.1 h. It also gave an MRT ([1]; male, SD, rat, plasma, iv, Mean, read-out: MRT) of 2.71 h, a Vd [1, 3] of 4.17 L/kg and an AUC(0-inf) [1, 4] of 4190 ng·h/mL. The AUC(0-t) [1, 4] was 3700 ng·h/mL, the clearance [1, 4] was 19.8 mL/min/kg and the half-life [1, 4] was 2.61 h. The MRT ([1]; male, SD, rat, plasma, iv, individual animal, read-out: MRT) was 3.53 h, the Vd [1, 4] was 4.21 L/kg and the “AUC 0 − t” value ([1]; individual animal) was 2564 ng·h/mL and 2711 ng·h/mL. The “AUC 0 − ∞” value ([1]; individual animal) was 2672 ng·h/mL and 2845 ng·h/mL, the Cl ([1]; individual animal) was 31.2 mL/min/kg and 29.3 mL/min/kg and the MRT ([1]; individual animal) was 2.13 h and 2.46 h. The T1/2 ([1]; individual animal) was 1.88 h and 1.82 h, the Vss ([1]; individual animal) was 3.98 L/kg and 4.33 L/kg and the IC50 (PI3Kβ) was 912 nM. For the same molecule, the inhibition at 0.1 µM (PI3Kβ) was 16%, the IC50 (PI3Kα) was 76.2 nM and the inhibition at 0.02 µM (PI3Kα) was 60.7%. For the same molecule, the half-life ([2]; male, SD, rat, plasma, oral, 10 mg/kg, 10 mg/kg, Mean, monomesylate) was 2.77 h, the half-life ([2]; male, SD, rat, plasma, oral, 10 mg/kg, 10 mg/kg, individual animal, monomesylate) was 3.08 h and the AUC(0-inf) ([2]; male, SD, rat, plasma, oral, 10 mg/kg, Mean, monomesylate) was 6120 ng·h/mL. The bioavailability ([2]; male, SD, rat, plasma, oral, 10 mg/kg versus 5 mg/kg intravenous, monomesylate, read-out: F (absolute bioavailability)) was 95.8%, the “steady-state distribution volume Vss, average residence time MRT, half-life T½ and absolute bioavailability F compared with CYH33 (in words)” value ([2]; monomesylates) was “improved” and the IC50 (PI3Kδ) was 75.2 nM. For the same molecule, the inhibition at 0.02 µM (PI3Kδ) was 64.1%.

`Cc1c(CN2CCN(S(C)(=O)=O)CC2)cc2c(N3CCOCC3)nc(-c3cnc(NC(=O)NC4CC4)cc3C(F)(F)F)nn12` [Compound P-20] showed an IC50 (PI3Kγ) of 36.6 nM, an inhibition at 0.1 µM (PI3Kγ) of 68.3% and an IC50 (PI3Kβ) of 124 nM. It also gave an inhibition at 0.1 µM (PI3Kβ) of 57.4%, an IC50 (PI3Kα) of 10.8 nM and an inhibition at 0.02 µM (PI3Kα) of 102%. For the same molecule, the IC50 (PI3Kδ) was 3.73 nM and the inhibition at 0.02 µM (PI3Kδ) was 83.1%.

Work on `CCNC(=O)Nc1cc(C(F)(F)F)c(-c2nc(N3CCOCC3)c3cc(CN4CCN(S(C)(=O)=O)CC4)c(C)n3n2)cn1` [Compound P-21] yielded an IC50 (PI3Kγ) of 37.5 nM, an inhibition at 0.1 µM (PI3Kγ) of 74.1% and an IC50 (PI3Kβ) of 139 nM. It also gave an inhibition at 0.1 µM (PI3Kβ) of 46.3%, an IC50 (PI3Kα) of 21.8 nM and an inhibition at 0.02 µM (PI3Kα) of 89.3%. The IC50 (PI3Kδ) was 6.22 nM and the inhibition at 0.02 µM (PI3Kδ) was 107%.

`Cc1c(CN2CCN(S(C)(=O)=O)CC2)cc2c(N3CCOCC3)nc(-c3cnc(NC(=O)NC(C)C)cc3C(F)(F)F)nn12` [Compound P-22] gave an IC50 (PI3Kγ) of 311 nM, an inhibition at 0.1 µM (PI3Kγ) of 30.3% and an IC50 (PI3Kβ) of 1540 nM. It also gave an inhibition at 0.1 µM (PI3Kβ) of 15.1%, an IC50 (PI3Kα) of 122 nM and an inhibition at 0.02 µM (PI3Kα) of 50%. It also gave an IC50 (PI3Kδ) of 29.5 nM and an inhibition at 0.02 µM (PI3Kδ) of 46.5%.

`Cc1c(CN2CCN(S(C)(=O)=O)CC2)cc2c(N3CCOCC3)nc(-c3cnc(NC(=O)Nc4ccc(F)cc4)cc3C(F)(F)F)nn12` [Compound P-23] showed an IC50 (PI3Kγ) of 47.1 nM, an inhibition at 0.1 µM (PI3Kγ) of 67% and an IC50 (PI3Kβ) of 109 nM. For the same molecule, the inhibition at 0.1 µM (PI3Kβ) was 32.6%, the IC50 (PI3Kα) was 18.7 nM and the inhibition at 0.02 µM (PI3Kα) was 77.9%. The IC50 (PI3Kδ) was 10.1 nM and the inhibition at 0.02 µM (PI3Kδ) was 77.1%.

Molecule `CS(=O)(=O)N1CCN(Cc2cc3nc(-c4cccc5[nH]ncc45)nc(N4CCOCC4)c3s2)CC1` [GDC0941, 2-(1H-indazol-4-yl)-6-[[4-(methylsulfonyl)-1-piperazinyl]methyl]-4-(4-morpholinyl)thieno[3,2-D]pyrimidine, reference compound] has an inhibition at 0.1 µM (PI3Kβ) of 21.1%, an inhibition at 0.02 µM (PI3Kα) of 41.7% and an inhibition at 0.02 µM (PI3Kδ) of 56.3%.
